Series [1] deals with THP-1-derived M2 macrophages. In words: Affinity test of FITC-conjugated peptides by flow cytometry. The class given is cell-based, human. On the procedure: THP-1 monocytes were differentiated into macrophages by 24 h incubation with 100 nM phorbol 12-myristate 13-acetate (PMA, Sigma) followed by 24 h incubation in RPMI medium (Invitrogen). Macrophages were polarized in M1 macrophages (M1) by incubation with 20 ng/ml of IFN-γ (Prospec) and 100 ng/ml of LPS (Sigma). Macrophage M2 polarization(M2) was obtained by incubation with 20 ng/ml of interleukin (IL) 4 (Prospec) and 20 ng/ml of interleukin 13 (Prospec). M2-like tumor-associated macrophages were polarized by incubation with 20% conditioned medium of PC3 cells.
THP-1 cells were differentiated into macrophages by a 24 h incubation with 100 nM PMA and polarized in M2 macrophages by incubation with 20 ng/ml of IL-4 and 20 ng/ml of IL-13 for 72 h. Polarized cells were treated with 50 nM TAMpep and fragments of TAMpep or Mpep and alanine library of Mpep conjugated with FITC for 1 h. To test change of macrophage population in melanoma tissue, the single cells were isolated from tumor tissue through a 40 μm nylon mesh strainer after dissociation by DNase I (1 U/mL) and collagenase D (1 mg/ml). Cells were detected on BD FACSCalibur and BD FACSCantoII instruments and analyzed by FlowJo software.

The subject of another series is TRAMP-C2 cells. In words: Mouse model of prostate cancer (subcutaneous TRAMP-C2). The class given is in vivo. Particulars: TRAMP-C2 prostate cancer model. The text has this: (§1) BALB/c and C57BL/6 (B6) wild-type mice were purchased from DBL. For the subcutaneous tumor model of melanoma and prostate cancer, CT26 (3×10^5 cells/mouse), B16F10 (1×10^6 cells/mouse) and TRAMP-C2 cells (1×10^6 cells/mouse) were mixed with Matrigel matrix (Corning) and inoculated subcutaneously into the right flank of the mice, and 4T1 (1×10^5 cells/mouse) cells mixed with Matrigel matrix and inoculated into a 4th mammary fat pad of the mice. TAMpepK, and MpepK peptides (200 nmol/kg) were injected intraperitoneally every 3 days, beginning at day 7 after tumor inoculation, and tumor volume was measured by electronic caliper. All tumor tissues were harvested after the end of the study and tumor weight was measured by an electronic balance.
Cells were harvested and lysed in PRO-PREP protein extraction solution (iNtRON, Bio Inc, Sungnam, Korea). Protein concentrations were measured with a Bradford Protein Assay Reagent kit (Bio-Rad, Richmond, CA, USA). Proteins were fractionated by 10% SDS-polyacrylamide gels electrophoresis (PAGE), and transferred onto polyvinylidene difluoride (PVDF) membranes. These were incubated with anti-arginase 1, anti-CD206, anti-caspase 3, anti-E-cadherin, anti-fibronectin, anti-PCNA, anti-TGF-β, anti-MMP9, and anti-β-actin Ab as primary antibodies. Goat anti-rabbit horseradish peroxidase-conjugated IgG or goat anti-mouse horseradish peroxidase-conjugated IgG (Abcam, Cambridge, Mass., USA) served as secondary antibodies. Protein bands were detected with a chemiluminescence reagent kit (SurModics).

Another series concerns M2 macrophages. In words: Affinity by immunofluorescence microscopy. The class given is cell-based, human.
For series [2], the system named is THP-1-derived M2 macrophages. In words: Cytotoxicity assay (CCK-8 cell viability). Particulars: 0.05-20 μM, 24 h. Format: cell-based, human. The procedure:
(§2) THP-1 cells were differentiated into macrophages by 24 h incubation with 100 nM PMA and polarized in M2 macrophages by incubation with 20 ng/ml of IL-4 and 20 ng/ml of IL-13 for 72 h. Polarized cells were treated with increasing concentrations of TAMpep and fragments of TAMpep (0.05-20 μM) for 24 h. Cell viability was analyzed using the CCK-8 assay: CCK-8 reagent (Enzo Life Sciences) was added to each well; incubation was continued for 2 hours, and absorbance was measured at 450 nm with a microplate reader (Molecular Devices).

A short description of series [3]: Cytotoxicity assay (CCK-8 cell viability). Particulars: THP-1-derived M2 macrophages, CCK-8. The class given is cell-based, human. The procedure:
as §2

Series [4] concerns murine melanoma cells (B16F10 cell line). In words: Mouse model of melanoma (subcutaneous B16F10). Format: in vivo. To be noted: B16F10 melanoma model, vs PBS group.
Text: as §1

A further series has as its system mouse RBC. In words: Hemolytic activity assay. Format: cell-based. To be noted: 0.1-50 μM, 37° C., 1 h, read-out: hemolysis IC50. The procedure:
Mouse blood samples were collected in tubes containing heparin as an anticoagulant and stored at 4 ° C. before use. Whole blood sample were centrifuged at 1,500×g for 5 min and the resulting plasma fraction was removed from the samples. The pellets were washed with an equal volume of saline, mixing by inversion. The centrifuging and washing steps were repeated 5 times. Red blood cells were counted by a hemocytometer and adjusted to […]. Red blood cells were then incubated at 37° C. for 1 h in 1% Triton X-100 (positive control), in PBS (blank), or with increasing concentrations of TAMpep and Mpep (0.1-50 μM) were evaluated. The samples were then centrifuged at 10,000 g for 5 min, the supernatant was separated from the pellet, and its absorbance measured at 570 nm. The relative optical density compared to that of the suspension treated with 1% Triton X-100 was defined as the percentage of hemolysis.

Series [5] is described as follows: Cytotoxicity in human melanoma cells. Format: cell-based. Particulars: Sk-Mel-28 cells.

The results in this text go back to patent US20220354957A1, “PEPTIDES TARGETING MACROPHAGES, AND CONJUGATES, COMPOSITIONS, AND USES THEREOF” (Twinpig Biolab, Inc., priority 2021, published 2022).

Where no end group is shown, it is not given here.

A word on the IC50: it is the midpoint of a concentration-inhibition curve.

Regarding `CC[C@H](C)[C@H](NC(=O)CN)C(=O)NCC(=O)N[C@@H](C)C(=O)N[C@H](C(=O)N[C@@H](CC(C)C)C(=O)N[C@@H](CCCCN)C(=O)N[C@H](C(=O)N[C@@H](CC(C)C)C(=O)N[C@H](C(=O)N[C@H](C(=O)NCC(=O)N[C@@H](CC(C)C)C(=O)N1CCC[C@H]1C(=O)N[C@@H](C)C(=O)N[C@@H](CC(C)C)C(=O)N[C@H](C(=O)N[C@@H](CO)C(=O)N[C@@H](Cc1c[nH]c2ccccc12)C(=O)N[C@H](C(=O)N[C@@H](CCCCN)C(=O)N[C@@H](CCCNC(=N)N)C(=O)N[C@@H](CCCCN)C(=O)N[C@@H](CCCNC(=N)N)C(=O)N[C@@H](CCC(N)=O)C(=O)N[C@@H](CCC(N)=O)C(N)=O)[C@@H](C)CC)[C@@H](C)CC)[C@@H](C)O)[C@@H](C)O)C(C)C)C(C)C` [TAMpep, reference compound], in series [1] (FITC-conjugated peptides, THP-1-derived M0, M1, M2, FACS), the “affinity in M2 macrophages compared to M0 and M1 macrophages” value is recorded as “significantly more high affinity”. In the series on TRAMP-C2 cells, the “body weight of mice” value is given as “did not significantly change”. Further, in the series with M2 macrophages, the “affinity in M2 macrophages by immunofluorescence microscopy” value was “high affinity”.

As for “A18: the eleventh S (serine) of Mpep is substituted with alanine (SEQ ID NO:21) (Ac-VLTTGLPALIAWIKRKRQQ)”, the “affinity of alanine-substituted Mpep peptides in M2 macrophages” value in series [1] (alanine-substituted library of Mpep, FITC-conjugated, FACS) is recorded as “increased affinity”.

Consider `CC(=O)N[C@H](CCCCN)C(=O)N[C@H](CC(C)C)C(=O)N[C@H](C)C(=O)N[C@H](CCCCN)C(=O)N[C@H](CC(C)C)C(=O)N[C@H](C)C(=O)N[C@H](CCCCN)C(=O)N[C@H](CCCCN)C(=O)N[C@H](CC(C)C)C(=O)N[C@H](C)C(=O)N[C@H](CCCCN)C(=O)N[C@H](CC(C)C)C(=O)N[C@H](C)C(=O)N[C@H](CCCCN)C(=O)O` [dKLA, d-Lys-d-Leu-d-Ala-d-Lys-d-Leu-d-Ala-d-Lys-d-Lys-d-Leu-d-Ala-d-Lys-d-Leu-d-Ala-d-Lys, reference compound], for which the “body weight of mice” value in the series on TRAMP-C2 cells was “did not significantly change”.

Consider `CC[C@H](C)[C@H](NC(=O)[C@H](CC(C)C)NC(=O)[C@H](C)NC(=O)[C@@H]1CCCN1C(=O)[C@H](CC(C)C)NC(=O)CNC(=O)[C@@H](NC(=O)[C@@H](NC(=O)[C@H](CC(C)C)NC(=O)[C@@H](NC(C)=O)C(C)C)[C@@H](C)O)[C@@H](C)O)C(=O)N[C@@H](CO)C(=O)N[C@@H](Cc1c[nH]c2ccccc12)C(=O)N[C@H](C(=O)N[C@@H](CCCCN)C(=O)N[C@@H](CCCNC(=N)N)C(=O)N[C@@H](CCCCN)C(=O)N[C@@H](CCCNC(=N)N)C(=O)N[C@@H](CCC(N)=O)C(=O)N[C@@H](CCC(N)=O)C(=O)O)[C@@H](C)CC` [Mpep, Val-Leu-Thr-Thr-Gly-Leu-Pro-Ala-Leu-Ile-Ser-Trp-Ile-Lys-Arg-Lys-Arg-Gln-Gln], for which the “cytotoxic effect in M2 macrophages (in words)” value in series [2] is reported as “low cytotoxicity”.

With `CC[C@H](C)[C@H](NC(=O)CNC(C)=O)C(=O)NCC(=O)N[C@@H](C)C(=O)N[C@H](C(=O)N[C@@H](CC(C)C)C(=O)N[C@@H](CCCCN)C(=O)N[C@H](C(=O)N[C@@H](CC(C)C)C(=O)N[C@H](C(=O)N[C@H](C(=O)NCC(=O)N[C@@H](CC(C)C)C(=O)N1CCC[C@H]1C(=O)N[C@@H](C)C(=O)N[C@@H](CC(C)C)C(=O)N[C@H](C(=O)N[C@@H](CO)C(=O)N[C@@H](Cc1c[nH]c2ccccc12)C(=O)N[C@H](C(=O)N[C@@H](CCCCN)C(=O)N[C@@H](CCCNC(=N)N)C(=O)N[C@@H](CCCCN)C(=O)N[C@@H](CCCNC(=N)N)C(=O)N[C@@H](CCC(N)=O)C(=O)N[C@@H](CCC(N)=O)C(=O)NCC(=O)NCC(=O)NCC(=O)NCC(=O)N[C@@H](CO)C(=O)N[C@H](CCCCN)C(=O)N[C@H](CC(C)C)C(=O)N[C@H](C)C(=O)N[C@H](CCCCN)C(=O)N[C@H](CC(C)C)C(=O)N[C@H](C)C(=O)N[C@H](CCCCN)C(=O)N[C@H](CCCCN)C(=O)N[C@H](CC(C)C)C(=O)N[C@H](C)C(=O)N[C@H](CCCCN)C(=O)N[C@H](CC(C)C)C(=O)N[C@H](C)C(=O)N[C@H](CCCCN)C(=O)O)[C@@H](C)CC)[C@@H](C)CC)[C@@H](C)O)[C@@H](C)O)C(C)C)C(C)C` [TAMpepK], the figures for the IC50 (in series [3]; in the series on mouse RBC; in series [5]) were 1060 nM, 1120 nM and 3580 nM, respectively. The “body weight of mice” value was “not significantly changed” in series [4] and “did not significantly change” with TRAMP-C2 cells.
